Patent US9663495B2 (YUHAN CORPORATION, priority 2013, dated 2017)

How the values were obtained:
[1] = biological target: T1, GPR119 (Homo sapiens, UniProt Q8TDV5); assay: cAMP Accumulation Assay (GPR119 CRE-bla CHO-K1 cells, LiveBLAzer-FRET B/G); format: cell-based; conditions: for EC50: 5 hours incubation; for Emax (Fold): maximum activity, response ratio versus non-treated control group
T1 construct: host or cells: CHO-K1 (GPR119 CRE-bla, doxycycline-induced)
T1 sequence (Q8TDV5 1-335): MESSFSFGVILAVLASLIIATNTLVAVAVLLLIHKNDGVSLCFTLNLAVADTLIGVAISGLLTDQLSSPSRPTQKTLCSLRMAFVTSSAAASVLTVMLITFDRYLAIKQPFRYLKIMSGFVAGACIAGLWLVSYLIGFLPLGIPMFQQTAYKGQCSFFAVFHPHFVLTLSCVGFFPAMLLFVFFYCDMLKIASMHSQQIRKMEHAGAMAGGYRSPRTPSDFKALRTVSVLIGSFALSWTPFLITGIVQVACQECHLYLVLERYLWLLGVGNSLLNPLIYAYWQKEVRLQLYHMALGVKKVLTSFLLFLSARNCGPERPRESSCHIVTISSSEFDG
Protocol: 32 μl of an assay medium (DMEM supplemented with GlutaMax™ 99%, dialyzed FBS 1%, non-essential amino acid 1 mM, HEPES 25 mM, penicillin 100 U/ml, and streptomycin 100 μg/ml) was added to each well of a 384 black well plate and then the GPR119 CRE-bla CHO-K1 cells (Invitrogen) were seeded in 1×10^4 cells per well. Doxycycline was dissolved in the assay medium in the concentration of 1 μg/ml. The resulting solution (4 μl) was added to each well, which was then incubated in a 5% CO 2 incubator at 37° C. for about 20 to 24 hours. Each test compounds were diluted with the assay medium to prepare 10 samples, which have concentrations ranging from […], respectively. Each samples (8 μl) was added to each well, which was then incubated in a 5% CO2 incubator at 37° C. for 5 hours. In case of the control group, the well was treated with a solution (8 μl) prepared by diluting dimethyl sulfoxide (DMSO) in the assay medium to 1%. The substrate mixture (8 μl) was added to each well, which was then left under darkness at room temperature for 2 hours. The substrate mixture contains the followings: 1 mM LiveBLAzer™-FRET B/G(CCF4-AM) substrate 6 μl, solution B 60 μl, solution C 904 μl, and solution D 30 μl.
Fluorescence intensity was determined under the wavelength conditions of 400 nm/465 nm (excitation/emission) for the blue channel and 400 nm/535 nm (excitation/emission) for the green channel, with the fluorescence microplate reader (SpectraFluor Plus. TECAN). The net activity of each well was calculated by subtracting the average value of the cell-free control group from the value of the unstimulated (i.e., non-treated) control group or the stimulated (i.e., test compound-treated) group at each wavelength. MBX-2982 (Metabolex) was used as a control drug. The response ratio was calculated by dividing the net signal ratio (465 nm/535 nm) of the control drug or the test compound by the net signal ratio (465 nm/535 nm) of the non-treated control group. The relative ratio (R.R) was calculated by dividing the maximum activity [Emax (fold)] of the test compound (i.e., % activity in comparison with the background) by the maximum activity [Emax (fold)] of the control drug (MBX-2982) [Emax (% RR)=(Emax of the test compound/Emax of MBX-2982)×100]. EC50 (half maximal effective concentration) was calculated using the software for statistical analysis “Prism 5.0 (GraphPad)”, based on the values obtained according to concentrations of the test compounds.

[2] = biological target: T1, GPR119; assay: as above; format: cell-based; conditions: (Emax of the test compound/Emax of MBX-2982)x100, 5 hours incubation

| Structure (SMILES) | EC50 [1] | Emax (Fold) [1] | Emax (% RR) [2] |
| --- | --- | --- | --- |
| CCc1cnc(N2CCN(c3ncc(-c4ccc(-n5cnn(CCNC(C)=O)c5=O)c(F)c4)cc3C#N)[C@@H](C)C2)nc1 [Example 26, (S)—N-(2-(4-(4-(5-cyano-6-(4-(5-ethylpyrimidin-2-yl)-2-methylpiperazin-1-yl)pyridin-3-yl)-2-fluorophenyl)-5-oxo-4,5-dihydro-1H-1,2,4-triazol-1-yl)ethyl)acetamide] | 20 nM | 3.4 Fold | 112.5 % RR |
| CCc1cnc(N2CCN(c3ncc(-c4ccc(-n5cnn(CC(C)(C)O)c5=O)c(F)c4)cc3C#N)[C@@H](C)C2)nc1 [Example 11, (S)-2-(4-(5-ethylpyrimidin-2-yl)-2-methylpiperazin-1-yl)-5-(3-fluoro-4-(1-(2-hydroxy-2-methylpropyl)-5-oxo-1H-1,2,4-triazol-4(5H)-yl)phenyl)nicotinonitrile] | 5 nM | 2.9 Fold | 102.1 % RR |
| CCc1cnc(N2CCN(c3ncc(-c4ccc(-n5cnn(CC(C)(C)C#N)c5=O)c(F)c4)cc3C#N)[C@@H](C)C2)nc1 [Example 25, (S)-5-(4-(1-(2-cyano-2-methylpropyl)-5-oxo-1H-1,2,4-triazol-4(5H)-yl)-3-fluorophenyl)-2-(4-(5-ethylpyrimidin-2-yl)-2-methylpiperazin-1-yl)nicotinonitrile] | 2.6 nM | 3.3 Fold | 116.0 % RR |
| CCc1cnc(N2CCN(c3ncc(-c4ccc(-n5cnn(C)c5=O)c(F)c4)cc3C#N)[C@@H](C)C2)nc1 [Example 9, (S)-2-(4-(5-ethylpyrimidin-2-yl)-2-methylpiperazin-1-yl)-5-(3-fluoro-4-(1-methyl-5-oxo-1H-1,2,4-triazol-4(5H)-yl)phenyl)nicotinonitrile] | 3 nM | 2.8 Fold | 118.2 % RR |
| CCc1cnc(N2CCN(c3ncc(-c4ccc(-n5cnn(CCNS(C)(=O)=O)c5=O)c(F)c4)cc3C#N)[C@@H](C)C2)nc1 [Example 23, (S)—N-(2-(4-(4-(5-cyano-6-(4-(5-ethylpyrimidin-2-yl)-2-methylpiperazin-1-yl)pyridin-3-yl)-2-fluorophenyl)-5-oxo-4,5-dihydro-1H-1,2,4-triazol-1-yl)ethyl)methanesulfonamide] | 7.9 nM | 3.4 Fold | 111.7 % RR |
| CCc1cnc(N2CCN(c3ncc(-c4ccc(-n5cnn(CN6CCN(C)CC6)c5=O)c(F)c4)cc3C#N)[C@@H](C)C2)nc1 [Example 27, (S)-2-(4-(5-ethylpyrimidin-2-yl)-2-methylpiperazin-1-yl)-5-(3-fluoro-4-(1-((4-methylpiperazin-1-yl)methyl)-5-oxo-1H-1,2,4-triazol-4(5H)-yl)phenyl)nicotinonitrile] | 3.1 nM | 4.0 Fold | 149.4 % RR |
| CCc1cnc(N2CCN(c3ncc(-c4ccc(-n5cnn(CCNC(=O)OC(C)(C)C)c5=O)c(F)c4)cc3C#N)[C@@H](C)C2)nc1 [Example 16, (S)-tert-butyl 2-(4-(4-(5-cyano-6-(4-(5-ethylpyrimidin-2-yl)-2-methylpiperazin-1-yl)pyridin-3-yl)-2-fluorophenyl)-5-oxo-4,5-dihydro-1H-1,2,4-triazol-1-yl)ethylcarbamate] | 7.2 nM | 3.3 Fold | 116.8 % RR |

The next lines start with the values.

| EC50 [1] | Emax (Fold) [1] | Emax (% RR) [2] | Structure (SMILES) |
| --- | --- | --- | --- |
| 1.5 nM | 3.8 Fold | 130.9 % RR | CCc1cnc(N2CCN(c3ncc(-c4ccc(-n5cnn(C(C)C)c5=O)c(F)c4)cc3C#N)CC2)nc1 [Example 30, 2-(4-(5-ethylpyrimidin-2-yl)piperazin-1-yl)-5-(3-fluoro-4-(1-isopropyl-5-oxo-1H-1,2,4-triazol-4(5H)-yl)phenyl)nicotinonitrile] |
| 2.5 nM | 3.1 Fold | 122.1 % RR | CCCn1ncn(-c2ccc(-c3cnc(N4CCC(c5noc(C(C)C)n5)CC4)c(C#N)c3)cc2F)c1=O [Example 66, 5-(3-fluoro-4-(5-oxo-1-propyl-1H-1,2,4-triazol-4(5H)-yl)phenyl)-2-(4-(5-isopropyl-1,2,4-oxadiazol-3-yl)piperidin-1-yl)nicotinonitrile] |
| 8.2 nM | 2.9 Fold | 101.3 % RR | CC(C)n1ncn(-c2ccc(-c3cnc(N4CCC(c5nnc(C(F)(F)F)o5)CC4)c(C#N)c3)cc2)c1=O [Example 73, 5-(4-(1-isopropyl-5-oxo-1H-1,2,4-triazol-4(5H)-yl)phenyl)-2-(4-(5-(trifluoromethyl)-1,3,4-oxadiazol-2-yl)piperidin-1-yl)nicotinonitrile] |
| 16 nM | 3.0 Fold | 109.1 % RR | COCn1ncn(-c2ccc(-c3cnc(N4CCN(c5noc(C(C)C)n5)CC4)c(C#N)c3)cc2)c1=O [Example 48, 2-(4-(5-isopropyl-1,2,4-oxadiazol-3-yl)piperazin-1-yl)-5-(4-(1-(methoxymethyl)-5-oxo-1H-1,2,4-triazol-4(5H)-yl)phenyl)nicotinonitrile] |
| 5.6 nM | 3.0 Fold | 104.2 % RR | CC(C)n1ncn(-c2ccc(-c3cnc(N4CCC(c5nnc(C(F)(F)F)o5)CC4)c(C#N)c3)cc2F)c1=O [Example 74, 5-(3-fluoro-4-(1-isopropyl-5-oxo-1H-1,2,4-triazol-4(5H)-yl)phenyl)-2-(4-(5-(trifluoromethyl)-1,3,4-oxadiazol-2-yl)piperidin-1-yl)nicotinonitrile] |
| 31 nM | 2.5 Fold | 100.8 % RR | C=C(C)OC(=O)N(C)C1CCN(c2ncc(-c3ccc(-n4cnn(C(C)C)c4=O)c(F)c3)cc2C#N)CC1 [Example 59, prop-1-en-2-yl 1-(3-cyano-5-(3-fluoro-4-(1-isopropyl-5-oxo-1H-1,2,4-triazol-4(5H)-yl)phenyl)pyridin-2-yl)piperidin-4-yl(methyl)carbamate] |
| 1.3 nM | 3.5 Fold | 122.7 % RR | CCCn1ncn(-c2ccc(-c3cnc(N4CCC(c5nc(C(C)C)no5)CC4)c(C#N)c3)cc2F)c1=O [Example 62, 5-(3-fluoro-4-(5-oxo-1-propyl-1H-1,2,4-triazol-4(5H)-yl)phenyl)-2-(4-(3-isopropyl-1,2,4-oxadiazol-5-yl)piperidin-1-yl)nicotinonitrile] |
| 2.6 nM | 3.8 Fold | 130.8 % RR | CC(C)c1noc(C2CCN(c3ncc(-c4ccc(-n5cnn(CN6CCCC6)c5=O)c(F)c4)cc3C#N)CC2)n1 [Example 64, 5-(3-fluoro-4-(5-oxo-1-(pyrrolidin-1-ylmethyl)-1H-1,2,4-triazol-4(5H)-yl)phenyl)-2-(4-(3-isopropyl-1,2,4-oxadiazol-5-yl)piperidin-1-yl)nicotinonitrile] |
